This data set can be described thus: CoQ10 Starting Material Particle Size Analysis, laser diffraction, dry dispersion. The class given is physicochemical. As for the experimental part:
This example details the results of particle size analysis for a commercially available CoQ10 starting material. Dry samples of KANEKA Q10 powder were analyzed using laser diffraction to obtain a measurement of particle size characteristics.
Particle size analysis of the CoQ10 starting material was conducted using a dry dispersion method. A […] HELOS equipped with a RODOS dispersion module and a R3 lens was employed for the analysis. Prior to the analysis the sample was evaluated using optical microscopy. Particles were well dispersed and ranged in size from approximately 5 microns to approximately 90 microns.

[1] abbreviates: dry powder, Avg. of analyses A-F.
The mark [2] stands for this setting: dry powder, single analyses A-F.

The structures appear in SMILES notation. Where “and” joins values, the source holds several entries; their conditions need not be identical. Equal entries are not always repeated.

Regarding `COC1=C(OC)C(=O)C(C/C=C(\C)CC/C=C(\C)CC/C=C(\C)CC/C=C(\C)CC/C=C(\C)CC/C=C(\C)CC/C=C(\C)CC/C=C(\C)CC/C=C(\C)CCC=C(C)C)=C(C)C1=O` [KANEKA Q10], under setting [1], the “x10, Particulate Size Distribution (Number Basis)” value was found to be 0.55 μm; the “x10, Particulate Size Distribution (Volume Basis)” value was 4.76 μm; the “x50, Particulate Size Distribution (Number Basis)” value is on record as 0.77 μm; the “x50, Particulate Size Distribution (Volume Basis)” value is given as 15.16 μm. In addition, under setting [1], the “x90, Particulate Size Distribution (Number Basis)” value turned out to be 1.30 μm; the “x90, Particulate Size Distribution (Volume Basis)” value is 40.52 μm; the “x95, Particulate Size Distribution (Number Basis)” value was 1.78 μm; the “x95, Particulate Size Distribution (Volume Basis)” value stood at 50.83 μm. Further, under setting [1], the “x99, Particulate Size Distribution (Number Basis)” value was determined as 5.11 μm and the “x99, Particulate Size Distribution (Volume Basis)” value came to 71.32 μm. In addition, under setting [2], the “x10, Particulate Size Distribution (Number Basis)” value was 0.55 μm; the “x10, Particulate Size Distribution (Volume Basis)” value was 4.99 μm and 5.21 μm and 4.63 μm and 4.16 μm and 4.77 μm and 4.80 μm; the “x50, Particulate Size Distribution (Volume Basis)” value is 15.36 μm and 15.89 μm and 15.04 μm and 14.37 μm and 15.15 μm; the “x90, Particulate Size Distribution (Volume Basis)” value was 40.65 μm and 41.41 μm and 40.36 μm and 39.46 μm and 40.75 μm and 40.46 μm. Under setting [2], the “x95, Particulate Size Distribution (Number Basis)” value was 1.79 μm and 1.74 μm and 1.77 μm and 1.80 μm and 1.78 μm; the “x95, Particulate Size Distribution (Volume Basis)” value is 50.84 μm and 51.76 μm and 50.62 μm and 49.96 μm and 51.11 μm and 50.68 μm; the “x99, Particulate Size Distribution (Number Basis)” value is 5.30 μm and 5.13 μm and 4.98 μm and 4.93 μm and 5.14 μm and 5.20 μm; the “x99, Particulate Size Distribution (Volume Basis)” value is 71.36 μm and 71.75 μm and 71.16 μm and 70.79 μm and 71.66 μm and 71.20 μm. Moreover, the “portion of the total volume attributable to particulates greater than 15 μm in diameter” value (volume basis) was “more than 50%”.

Source of the values: US9655849B2, “Solid particulate compositions comprising coenzyme Q10” (Particle Dynamics International, LLC, priority 2011, dated 2017).
